The source of these data is EP0326640B1, “(1R,5S,6S)-2-substituted thio-6 (R)-1-hydroxyethyl -1-methyl-carbapenem - carboxylic acid derivatives” (LEDERLE (JAPAN) LTD., priority 1987, dated 1989).

Experiment [1] deals with T1, Swine Kidney Dehydropeptidase-I (DHP-I) (Sus scrofa, UniProt P22412).
T1 construct: made soluble by treatment with butanol and purified by the ammonium sulfate fraction method, thereby producing DHP-I enzyme from a 75% ammonium sulfate fraction; from tissue; host or cells: swine kidney
Nature of the experiment: Hydrolysis activity against DHP-I enzyme substrate by late assay. Format: in vitro ADME. To be noted: substrate concentration 100 µM, 37°C, 10 minutes. As to the method:
The swine kidney (8 kg) was homogenized and the enzyme protein was allowed to precipitate. After a connective lipid was removed with acetone, the resultant material was made soluble by treatment with butanol and purified by the ammonium sulfate fraction method, thereby producing DHP-I enzyme from a 75% ammonium sulfate fraction. The DHP-I enzyme was then adjusted to give an enzyme concentration of 25 mg/10 ml (phosphate buffer, pH 7.1), and divided into 1 ml portions. The portions were frozen and stored at -40°C or less until use. Glycyl dehydrophenylalanine (Gl-dh-Ph) and imipenem were employed as control compounds, and they were adjusted in situ each to give a concentration of 117 µM with the same sodium phosphate buffer solution. […] The solution was then incubated at 37°C for 10 minutes. The initial velocity of hydrolysis of the substrate was measured from a decrease in absorbency at a particular λmax of each of the substrates. A blank test was conducted in substantially the same manner as above by adding 0.2 ml of the sodium phosphate buffer solution (pH 7.1) to 1.2 ml of the above substrate.

Experiment [2] concerns Proteus mirabilis IFO3849. Nature of the experiment: Antibacterial test, agar plate dilution method (MIC), standard strains. Format: cell-based. To be noted: Proteus mirabilis, IFO3849, 18 h, Proteus mirabilis IFO3849; MH agar, 37°C, 18 hours; read-out: MIC. As to the method:
(§1) The antibacterial activities were tested by an agar plate dilution method in accordance with the standard method of The Japanese Chemotherapy Society [Chemotherapy, Vol. 29, 76-79 (1981)].
(§2) A Mueller-Hinton (MH) agar liquid medium of a test microorganism was cultured overnight at 37°C and the resultant culture medium was diluted with a buffered saline gelatin (BSG) solution to contain approximately 10⁶ cells of the test microorganisms per milliliter, and then the diluted solution was inoculated with a microplanter at the rate of approximately 5 microliters on a MH agar medium containing a test compound. This medium was then incubated at 37°C for 18 hours. The minimum inhibitory concentration (MIC) is determined as a minimum concentration in which no test microorganism could grow. It is noted here that the test organisms used were all standard strains.

Experiment [3] concerns Pseudomanas aeruginosa NCTC 10940. Described as above. Format: cell-based. To be noted: 18 h, MH agar, 37°C, read-out: MIC. As to the method: as §1, §2
Experiment [4] deals with Salmonella schottmuelleri 8006. The experiment is described as above. Format: cell-based. To be noted: MH agar, 37°C, 18 hours, read-out: MIC. As to the method:
as §1, §2

The subject of another experiment is Salmonella typhi 901. The description is as above. Format: cell-based. To be noted: Salmonella enterica, TYPHI, 18 h, MH agar, 37°C. Here is the method: as §1, §2
Experiment [5] relates to Pseudomonas aeruginosa IFO 3445. The description is as above. To be noted: IFO3445, MH agar, 37°C, 18 hours, read-out: MIC. Format: cell-based. Here is the method: as §1, §2
Experiment [6] deals with Serratia marcescens IAM1184. Described as above. Format: cell-based. To be noted: Serratia marcescens, IAM1184, 18 h, MH agar, 37°C, read-out: MIC. Here is the method: as §1, §2
For experiment [7], the system named is Providencia rettgeri IFO 3850. Described as above. Format: cell-based. To be noted: Providencia rettgeri, IFO3850, 18 h, MH agar, 37°C, read-out: MIC. Here is the method: as §1, §2
Another experiment deals with Proteus vulgaris HX-19. Described as above. Format: cell-based. To be noted: HX19; Proteus vulgaris HX-19; MH agar, 37°C, 18 hours; read-out: MIC. As to the method:
as §1, §2

In experiment [8] the test system is Salmonella paratyphi 1015. Described as above. To be noted: Salmonella enterica, MH agar, 37°C, 18 hours, read-out: MIC. Format: cell-based. Here is the method:
as §1, §2

Another experiment has as its system Proteus vulgaris OX-19. Described as above. Format: cell-based. To be noted: OX19; Proteus vulgaris OX-19; MH agar, 37°C, 18 hours; read-out: MIC. Here is the method: as §1, §2
Experiment [9] deals with Salmonella enteritidis G14. The description is as above. Format: cell-based. To be noted: Salmonella enterica, MH agar, 37°C, 18 hours, read-out: MIC. Here is the method: as §1, §2
Experiment [10] relates to Morganella morganii IFO3848. Described as above. The experiment is classed as cell-based. To be noted: Morganella morganii, IFO3848, 18 h, MH agar, 37°C, read-out: MIC. Here is the method: as §1, §2
Experiment [11] has as its system Pseudomonas aeruginosa GN 10367. Nature of the experiment: Antibacterial activity against clinically isolated β-lactamase (cephalosporinase) producing strains (MIC). Format: cell-based. To be noted: GN10367; Pseudomonas aeruginosa GN 10367; cephalosporinase producing strain, SDA, 18 to 20 hours; read-out: MIC. As to the method: (§3) The antibacterial activities against clinically isolated β-lactamase producing strains were tested by the agar plate dilution method in accordance with the standard method of The Japanese Chemotherapy Society [Chemotherapy, Vol. 29, 76-79 (1981)]. A solution of a cephalosporinase producing strain stored by Episome Research Institute, prepared by incubating the strain in a sensitivity test broth (STB; product of Nissui K. K.) for 18 hours, was diluted with a fresh STB solution so that the solution contained 10⁶ cells per milliliter. The diluted solution was then inoculated as spots in a microplanter on a sensitivity disk agar-N (SDA; product of Nissui K. K.) containing a test compound. The disk agar was then incubated for 18 to 20 hours. The minimum inhibitory concentration was determined as a minimum concentration in which the test microorganism no longer grew after a 18 to 20-hour incubation.

For experiment [12], the system named is Pseudomonas aeruginosa GN 918. The experiment is described as above. The experiment is classed as cell-based. To be noted: GN918; Pseudomonas aeruginosa GN 918; cephalosporinase producing strain, SDA, 18 to 20 hours; read-out: MIC. As to the method: as §3
Experiment [13] deals with Klebsiella oxytoca GN 10650. The experiment is described as above. Format: cell-based. To be noted: Klebsiella oxytoca, GN10650, Klebsiella oxytoca GN 10650; cephalosporinase producing strain, SDA, 18 to 20 hours; read-out: MIC. As to the method:
as §3

The subject of experiment [14] is Citrobactor freundii GN 7391. The description is as above. The experiment is classed as cell-based. To be noted: cephalosporinase producing strain, SDA, 18 to 20 hours. As to the method:
as §3

The test system of the next experiment is Proteus vulgaris GN 7919. The experiment is described as above. The experiment is classed as cell-based. To be noted: Proteus vulgaris, GN7919, Proteus vulgaris GN 7919; cephalosporinase producing strain, SDA, 18 to 20 hours; read-out: MIC. As to the method:
as §3

The next experiment deals with Proteus vulgaris GN 4413. Described as above. Format: cell-based. To be noted: Proteus vulgaris, GN4413, Proteus vulgaris GN 4413; cephalosporinase producing strain, SDA, 18 to 20 hours; read-out: MIC. As to the method: as §3
In experiment [15] the test system is Pseudomonas aeruginosa GN 10362. The description is as above. The experiment is classed as cell-based. To be noted: GN10362, cephalosporinase producing strain, SDA, 18 to 20 hours, read-out: MIC. As to the method:
as §3

Experiment [16] relates to Citrobactor freundii GN 346. Described as above. The experiment is classed as cell-based. To be noted: cephalosporinase producing strain, SDA, 18 to 20 hours. As to the method: as §3
The test system of another experiment is Serratia marcescens L-65. The description is as above. Format: cell-based. To be noted: Serratia marcescens, L65, Serratia marcescens L-65; cephalosporinase producing strain, SDA, 18 to 20 hours; read-out: MIC. As to the method:
as §3

The next experiment deals with Serratia marcescens L-82. Described as above. The experiment is classed as cell-based. To be noted: L82, cephalosporinase producing strain, SDA, 18 to 20 hours, read-out: MIC. As to the method:
as §3

Experiment [17] deals with Pseudomonas cepacia GN 11164. Described as above. Format: cell-based. To be noted: Burkholderia cepacia, GN11164, cephalosporinase producing strain, SDA, 18 to 20 hours, read-out: MIC. As to the method:
as §3

Experiment [18] concerns Serratia marcescens GN 10857. The description is as above. Format: cell-based. To be noted: Serratia marcescens, GN10857, Serratia marcescens GN 10857; cephalosporinase producing strain, SDA, 18 to 20 hours; read-out: MIC. As to the method:
as §3

The structures appear in SMILES notation. In brackets after ≈: the same amount, converted by molar mass.

What is called MIC is the smallest concentration in the dilution series that meets the test's criterion for growth inhibition.

T1 sequence (P22412 17-384): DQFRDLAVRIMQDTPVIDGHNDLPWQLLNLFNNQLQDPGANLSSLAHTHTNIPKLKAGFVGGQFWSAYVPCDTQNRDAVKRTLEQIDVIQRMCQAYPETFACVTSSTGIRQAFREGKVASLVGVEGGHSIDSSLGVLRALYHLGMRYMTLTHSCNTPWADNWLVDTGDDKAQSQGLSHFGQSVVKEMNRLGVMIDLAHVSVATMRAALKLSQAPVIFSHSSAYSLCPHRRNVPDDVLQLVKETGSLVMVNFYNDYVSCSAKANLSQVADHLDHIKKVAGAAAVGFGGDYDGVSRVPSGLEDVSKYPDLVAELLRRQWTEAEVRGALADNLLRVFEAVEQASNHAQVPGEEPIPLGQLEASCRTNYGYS

With `NCC(=O)NC(=Cc1ccccc1)C(=O)O` [Gl-dh-Ph, Glycyl dehydrophenylalanine], the “initial velocity of hydrolysis” value in experiment [1] came out at 17.4 µM/min.
With `Cc1nnc(SCC2=C(C(=O)O)N3C(=O)[C@@H](NC(=O)Cn4cnnn4)[C@H]3SC2)s1` [CEZ, cefazolin], the MIC was 6.25 µg/mL (≈ 13.8 µM) in [2]; greater than 100 µg/mL in [3]; 0.78 µg/mL (≈ 1.72 µM) in experiment [4]; 0.78 µg/mL (≈ 1.72 µM) with Salmonella typhi 901; greater than 100 µg/mL in [5]; greater than 100 µg/mL in experiment [6]. Besides, the MIC in experiment [7] came to 12.5 µg/mL (≈ 27.5 µM); with Proteus vulgaris HX-19 it was 6.25 µg/mL (≈ 13.8 µM); in experiment [8] it was 1.56 µg/mL (≈ 3.43 µM); in the experiment with Proteus vulgaris OX-19, 6.25 µg/mL (≈ 13.8 µM); in experiment [9] it was 0.78 µg/mL (≈ 1.72 µM); in experiment [10], 25 µg/mL (≈ 55 µM). Moreover, the minimum inhibitory concentration (MIC) in [11] was 3.13 µg/mL (≈ 6.89 µM); in experiment [12] it was 6.25 µg/mL (≈ 13.8 µM); in [13], 0.2 µg/mL (≈ 0.44 µM); in experiment [14], greater than 100 µg/mL; in the experiment with Proteus vulgaris GN 7919, 3.13 µg/mL (≈ 6.89 µM); in the experiment with Proteus vulgaris GN 4413 it was 0.2 µg/mL (≈ 0.44 µM). Further, the minimal inhibitory concentration (MIC) in experiment [15] was determined as 3.13 µg/mL (≈ 6.89 µM); in [16], 25 µg/mL (≈ 55 µM); with Serratia marcescens L-65, 0.2 µg/mL (≈ 0.44 µM); in the experiment on Serratia marcescens L-82 it was 0.39 µg/mL (≈ 0.858 µM); in experiment [17], 0.78 µg/mL (≈ 1.72 µM); in experiment [18], 0.78 µg/mL (≈ 1.72 µM).
